≈ marks a conversion by molar mass, not a printed value. Like-named read-outs stand apart in the source and are kept apart here.
How the values were obtained:
in vitro [1] = conditions: human, IC50 (50% inhibitory concentration, cytotoxicity)
Experimental: (§1) The human retinal pigment epithelial cells prepared in Example 2 were treated with 0.25% trypsin to collect the cells from a culture dish. The collected cells were seeded in a 96-well culture dish previously coated with Matrigel at 100000 or 120000 cells per well and then cultured in an incubator at 37° C. and 5% CO2.
(§2) After the cultivation for 2 hours to 4 hours, the medium was removed from the 96-well culture dish using an aspirator and Earle's Balanced Salt Solution (EBSS) was then added to the 96-well culture dish at 150 μl per well to wash the cells.
(§3) After the 96-well culture dish was shaded by wrapping with aluminum foil, irradiation of the culture dish shaded with aluminum foil with light was carried out using a light irradiation device (a solar simulator SXL-2500V2: SERIC LTD.) for 40 minutes (light irradiation dose of about 5 J/cm^2). Immediately after light irradiation, the 96-well culture dish was washed twice with 150 μl of a DMEM/F12 culture liquid and a DMEM/F12 culture liquid supplemented with N2-supplement was then added to the 96-well culture dish at 100 μl per well, followed by cultivation overnight.
(§4) After the cultivation, the medium was removed from the 96-well culture dish and a previously prepared mixed solution of equal amounts of DMEM/F12 culture liquid and Cell titer Glo reaction liquid was then added to the 96-well culture dish at 100 μl per well.
(§5) The obtained 96-well culture dish was allowed to stand at room temperature for 30 minutes while shaking in a shaded state with aluminum foil and 95 μl of culture contained in the 96-well culture dish was then transferred to a white 96-well examining dish. Next, the amount of luminescence of the culture contained in the 96-well examining dish (the amount of luminescence has a correlation with the cell survival rate) was measured by EnVision Multilabel Reader (PerkinElmer). The 50% inhibitory concentration (IC50) of a test substance to the human retinal pigment epithelial cells was calculated from the measured values and the calculated value was considered as a value showing cytotoxicity (an index value correlated therewith).
(§6) Unlike Example 3, irradiation with light was carried out using a light irradiation device (a solar simulator SXL-2500V2: SERIC LTD.) for 40 minutes without wrapping the 96-well culture dish with aluminum foil (light irradiation dose is about 5 J/cm^2 by calculation based on light irradiation strength at 360 nm). Immediately after light irradiation, the 96-well culture dish was washed twice with 150 μl of a DMEM/F12 culture liquid and a DMEM/F12 culture liquid supplemented with N2-supplement was then added to the 96-well culture dish at 100 μl per well, followed by cultivation overnight.
(§7) The above-described PIF value (Photo Irritation Facor value) was obtained based on the 50% inhibitory concentration (IC50) calculated in Example 3 and Example 4 (that is, a value obtained by dividing the cytotoxicity IC50 value in human retinal pigment epithelial cells exposed to a test substance (a (shaded) control for non-light Irradiation) by the cytotoxicity IC50 value in human retinal pigment epithelial cells cultured under simulated solar light irradiation within 24 hours after the onset of exposure to the test substance). […] When the value (PIF value) was greater than 5, the test substance was evaluated as phototoxicity-positive.

[2] = test system: human retinal pigment epithelial cells; assay: in vitro
Experimental: as §1, §2, §3, §4, §5, §6, §7

Balb/c 3T3 cells = assay: in vitro
Experimental: (§8) “Balb/c 3T3 cells” are connective tissue cells and fibroblasts.
(§9) The “Balb/c 3T3 cells” cultured in DMEM medium supplemented with 10% bovine serum and L-glutamine were treated with 0.25% trypsin to collect the cells from a culture dish. The collected cells were seeded in a 96-well culture dish previously coated with a 0.1% gelatin solution at 10000 cells per well and then cultured in DMEM medium supplemented with 10% bovine serum and […] in an incubator at 37° C. and 5% CO2 overnight.
(§10) After the cultivation, the medium was removed from the 96-well culture dish using an aspirator and Earle's Balanced Salt Solution (EBSS) was then added to the 96-well culture dish at 150 μl per well to wash the cells.
(§11) After the 96-well culture dish was shaded by wrapping with aluminum foil, irradiation of the culture dish shaded with aluminum foil with light was carried out using a light irradiation device (a solar simulator SXL-2500V2: SERIC LTD.) for 40 minutes (the light irradiation dose is about 5 J/cm^2 by calculation based on irradiation strength at 360 nm). Immediately after light irradiation, the 96-well culture dish was washed twice with 150 μl of a DMEM/F12 culture liquid and a DMEM/F12 culture liquid supplemented with N2-supplement was then added to the 96-well culture dish at 100 μl per well, followed by cultivation overnight.
as §4
(§12) The obtained 96-well culture dish was allowed to stand at room temperature for 30 minutes while shaking in a shaded state with aluminum foil and 95 μl of culture contained in the 96-well culture dish was then transferred to a white 96-well examining dish.
(§13) Next, the amount of luminescence of the culture contained in the 96-well examining dish (the amount of luminescence has a correlation with the cell survival rate) was measured by EnVision Multilabel Reader (PerkinElmer). The 50% inhibitory concentration (IC50) of a test substance to the human retinal pigment epithelial cells was calculated from the measured values and the calculated value was considered as a value showing cytotoxicity (an index value correlated therewith).
(§14) The “Balb/c 3T3 cells” cultured in DMEM medium supplemented with 10% bovine serum and L-glutamine were treated with 0.25% trypsin to collect the cells from a culture dish. The collected cells were seeded in a 96-well culture dish previously coated with a 0.1% gelatin solution at 10000 cells per well and then cultured in DMEM medium supplemented with 10% bovine serum and L-glutamine in an incubator at 37° C. and 5% CO2 overnight.
as §6, with “Unlike Comparative” for “Unlike”, “1, light” for “3,”, “irradiation” for “irradiation with light”
as §12, with “dish. Next, the amount of luminescence of the culture contained in the 96-well examining dish (the amount of luminescence has a correlation with the cell survival rate) was measured by EnVision Multilabel Reader (PerkinElmer).” for “dish.”

yeast-RBC = conditions: 4 facilities, validation study report Aug. 27, 2004; cited from earlier work
in vitro [3] = conditions: mouse, IC50 (50% inhibitory concentration, cytotoxicity)
Experimental: as §8, §9, §10, §11, §4, §12, §13, §14
as §6, with “Unlike Comparative” for “Unlike”, “1, light” for “3,”, “irradiation” for “irradiation with light”
as §12, with “dish. Next, the amount of luminescence of the culture contained in the 96-well examining dish (the amount of luminescence has a correlation with the cell survival rate) was measured by EnVision Multilabel Reader (PerkinElmer).” for “dish.”

[4] = test system: human retinal pigment epithelial cells
Experimental: The relationship between the light irradiation dose and the above-described PIF value (that is, a value obtained by dividing the cytotoxicity IC50 value in human retinal pigment epithelial cells exposed to a test substance (a (shaded) control for non-light irradiation) by the cytotoxicity IC50 value in human retinal pigment epithelial cells cultured under simulated solar light irradiation within 24 hours after the onset of contact with the test substance) was examined using chlorpromazine (CPZ) used as a positive control in the OECD guideline. Light irradiation was set to each condition of a light of 2.09 mW/cm^2 (measured with UVR300 manufactured by TOPCON CORPORATION equipped with photoreceiving part UD360) for 15 minutes (1.87 J/cm^2), 20 minutes (2.50 J/cm^2), 25 minutes (3.13 J/cm^2), 30 minutes (3.75 J/cm^2), 40 minutes (5.00 J/cm^2) and 60 minutes (7.51 J/cm^2), and the phototoxicity test method was carried out according to the methods described in Example 3 and Example 4. The phototoxicity test method in shaded conditions as a control for non-light irradiation was carried out in the same manner as in the phototoxicity test method under light irradiation except that light was blocked.
The number of viable cells of the human retinal pigment epithelial cells was checked for 15 minutes (1.87 J/cm^2), 20 minutes (2.50 J/cm^2), 25 minutes (3.13 J/cm^2), 30 minutes (3.75 J/cm^2), 40 minutes (5.00 J/cm^2) and 60 minutes (7.51 J/cm^2).

[5] = shaded (control for non-light irradiation)
[6] = shaded with aluminum foil (control for non-light irradiation), 40 minutes, then cultivation overnight
[7] = simulated solar light irradiation 40 minutes, about 5 J/cm^2
[8] = simulated solar light irradiation 40 minutes, about 5 J/cm^2 at 360 nm, then cultivation overnight

Compound	IC50 at 40 min (in vitro [1])	photocytotoxicity determination by the phototoxicity test method of the present invention [2]	IC50 (50% inhibitory concentration, cytotoxicity) ([2]; human, 40 min)	photocytotoxicity determination by the comparative phototoxicity test method (Balb/c 3T3 cells)	PIF value (Photo Irritation Facor value) = IC50 shaded / IC50 under light irradiation (Balb/c 3T3 cells; mouse, 40 min)	result in the yeast-RBC assay (yeast-RBC)	PIF value (Photo Irritation Facor value) = IC50 shaded / IC50 under light irradiation ([2]; human, 40 min)	IC50 (50% inhibitory concentration, cytotoxicity) (Balb/c 3T3 cells; mouse, 40 min)	photocytotoxicity determination by the phototoxicity test method of the present invention ([2]; evaluation based on PIF value)	photocytotoxicity determination by the comparative phototoxicity test method (Balb/c 3T3 cells; evaluation based on PIF value)	also measured
Oc1c(Cl)cc(Cl)cc1Sc1cc(Cl)cc(Cl)c1O [Bithionol, bithionol]	> 10 µg/mL	photocytotoxicity-negative	> 10 µg/mL	photocytotoxicity-positive	12.4	false positive					concentration at or below which cytotoxicity was not observed ([2]; human, 40 min): ≤ 10 µg/mL
[H]/N=C(\N/C(=N/[H])NCCCCCCNC(=N)NC(=N)Nc1ccc(Cl)cc1)Nc1ccc(Cl)cc1 [Chlorhexidine, chlorhexidine]	42.7 µg/mL (≈ 84.5 µM)	photocytotoxicity-negative	43.7 µg/mL (≈ 86.5 µM)	photocytotoxicity-negative	1.4	false positive	0.98	10.1 µg/mL (≈ 20 µM)			IC50 at 40 min (in vitro [3]): 13.7 µg/mL (≈ 27.1 µM)
CN(C)CCCN1c2ccccc2Sc2ccc(Cl)cc21 [Chlorpromazine (CPZ), chlorpromazine]		photocytotoxicity-positive		photocytotoxicity-positive	23.7		6.5				PIF ([4]; 15 min): 1.70; PIF ([4]; 20 min): 1.72; PIF ([4]; 25 min): 3.35; light irradiation dose by which the number of viable cells under light irradiation significantly decreases relative to light blocked conditions ([4]; 25 min, 10 μg/ml): ≥ 3.13 J/cm^2; PIF ([4]; 30 min): 4.57; PIF ([4]; 40 min): 6.53; PIF ([4]; 60 min): 10.94
CC1(C)S[C@@H]2[C@H](NC(=O)Cc3ccccc3)C(=O)N2[C@H]1C(=O)O [Penicillin G, penicillin G]									photocytotoxicity-negative	photocytotoxicity-negative	PIF value (Photo Irritation Facor value) = IC50 shaded / IC50 under light irradiation ([2]; from Example 3 and Example 4, greater than 5 = phototoxicity-positive): Photocytotoxicity is not Confirmed; concentration at or below which cytotoxicity was not observed [2, 5]: ≤ 1000 µg/mL; IC50 (50% inhibitory concentration, cytotoxicity) [2, 6]: > 1000 µg/mL; concentration at or below which cytotoxicity was not observed [2, 7]: ≤ 1000 µg/mL; IC50 (50% inhibitory concentration, cytotoxicity) [2, 8]: > 1000 µg/mL; PIF value (Photo Irritation Facor value) = IC50 shaded / IC50 under light irradiation (Balb/c 3T3 cells; from Comparative Example 1 and Comparative Example 2, greater than 5 = phototoxicity-positive): Photocytotoxicity is not Confirmed; concentration at or below which cytotoxicity was not observed (Balb/c 3T3 cells; [5]): ≤ 1000 µg/mL; IC50 (50% inhibitory concentration, cytotoxicity) (Balb/c 3T3 cells; [6]): > 1000 µg/mL; concentration at or below which cytotoxicity was not observed (Balb/c 3T3 cells; [7]): ≤ 1000 µg/mL; IC50 (50% inhibitory concentration, cytotoxicity) (Balb/c 3T3 cells; [8]): > 1000 µg/mL
C=C[C@H]1C[N@@]2CC[C@H]1C[C@H]2[C@H](O)c1ccnc2ccc(OC)cc12 [Quinine, quinine]	147 µg/mL (≈ 453 µM)		88.9 µg/mL (≈ 274 µM)		128.8		1.7	2.3 µg/mL (≈ 7.09 µM)	photocytotoxicity-negative	photocytotoxicity-positive	IC50 (Balb/c 3T3 cells; mouse, 40 min): 292 µg/mL (≈ 901 µM)
